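Results reflect a 48-hour exposure of cells in 96-well plates to compound at five concentrations. GI50: concentration for 50% inhibition of growth.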 Activity calls are given as the source filed them. Cut-off read from the data, not from the text of the source: active = GI50 up to about 1.1 µM and inactive = higher. Some results are limits rather than exact numbers.

The source of these data is ChEMBL document CHEMBL1201862, “PubChem BioAssay data set” (2004).

Test systems include HL-60; NCI-H460; M14; UACC-62; SNB-75; SF-295; ACHN; COLO 205; PC-3; SK-MEL-28; CAKI-1; NCI-H23; DU-145; MCF7; T47D; HCT-116; UO-31; Hs-578T; HOP-62; SF-539.
Common to all, as to test: NCI-60 cell line screen, 48 h

For `S=C(S)NCCN1CCNCC1`, the GI50 with HL-60 is < 0.01 µM (active); with NCI-H460 it was 34.6 µM (inactive); in the test with M14, 31.2 µM (inactive); with UACC-62, 84.9 µM (inactive); in the test with SNB-75 it was > 100 µM (inactive); with SF-295 it was > 100 µM (inactive). Further, the GI50 in the test with ACHN is 36.7 µM (inactive); in the test on COLO 205 it was 18 µM (inactive); in the test on PC-3, 34.3 µM (inactive); in the test with SK-MEL-28, > 100 µM (inactive); in the test with CAKI-1 it was 39.5 µM (inactive); in the test with NCI-H23, > 100 µM (inactive). The GI50 in the test on DU-145 was 36.1 µM (inactive); with MCF7, 40 µM (inactive); with T47D, 10.7 µM (inactive); in the test with HCT-116, 27.9 µM (inactive); with UO-31, 29.7 µM (inactive); with Hs-578T, > 100 µM (inactive). Also, in the test on HOP-62, the GI50 is > 100 µM (inactive).
For `CSC(=S)NN=C1CCCC1.CSC(=S)NN=C1CCCC1.[Zn+2]`, the GI50 in the test on NCI-H460 was 31.6 µM (inactive); in the test on M14 it was 40.1 µM (inactive); in the test on UACC-62 it was 28.2 µM (inactive); in the test with SNB-75, > 100 µM (inactive); in the test on SF-295 it was 16.8 µM (inactive); in the test on ACHN, 1.83 µM (inactive). Also, the GI50 in the test with COLO 205 is 34.6 µM (inactive); with PC-3 it was 25.8 µM (inactive); in the test with SK-MEL-28 it was 72.4 µM (inactive); with CAKI-1 it was 46.7 µM (inactive); in the test with NCI-H23 it was > 100 µM (inactive); with DU-145, 58.5 µM (inactive). For the same compound, the GI50 is 34.7 µM (inactive) in the test on MCF7; 21.3 µM (inactive) with SF-539; 33.5 µM (inactive) in the test on T47D; 14.7 µM (inactive) with HCT-116; 13.4 µM (inactive) in the test with UO-31; 29.2 µM (inactive) in the test on Hs-578T. The GI50 in the test on HOP-62 was 28.3 µM (inactive).
Take `CNC(=S)NN=C1NCCCCN1`: the GI50 in the test on HL-60, in the test on NCI-H460, in the test on M14, with UACC-62, in the test with SNB-75 and in the test with SF-295 was > 100 µM (inactive) in each case. Besides, the GI50 was > 100 µM (inactive) in the test on ACHN; > 100 µM (inactive) with COLO 205; > 100 µM (inactive) in the test on PC-3; > 100 µM (inactive) in the test on SK-MEL-28; 29.2 µM (inactive) with CAKI-1; > 100 µM (inactive) in the test with NCI-H23. Besides, the GI50 was > 100 µM (inactive) with MCF7; > 100 µM (inactive) with SF-539; > 100 µM (inactive) with T47D; > 100 µM (inactive) in the test on HCT-116; > 100 µM (inactive) in the test on UO-31; 83.9 µM (inactive) with Hs-578T. For the same compound, in the test with HOP-62, the GI50 is > 100 µM (inactive).
For `CC(=O)Nc1ccc(C(=O)NN2C(=O)C(Cl)C2c2ccc(Cl)cc2)cc1` (stereo not given), the GI50 in the test with HL-60 is > 100 µM (inactive); with NCI-H460, > 90.4 µM (inactive); in the test with M14, > 100 µM (inactive); in the test with UACC-62, > 100 µM (inactive); with SNB-75, 16.1 µM (inactive); in the test on SF-295, 20.6 µM (inactive). The GI50 with ACHN was > 57.5 µM (inactive); with COLO 205, > 100 µM (inactive); with PC-3, > 100 µM (inactive); in the test with SK-MEL-28 it was 52.5 µM (inactive); with NCI-H23 it was 44.8 µM (inactive); in the test with DU-145 it was > 100 µM (inactive). The GI50 with MCF7 was > 100 µM (inactive); in the test with SF-539, 21.6 µM (inactive); with T47D it was > 100 µM (inactive); with HCT-116, > 100 µM (inactive); in the test with UO-31 it was > 100 µM (inactive); in the test with Hs-578T, 8.83 µM (inactive). In addition, the GI50 in the test on HOP-62 was 22.2 µM (inactive).
For `COc1ccc(OC)c2c1C=C[C@H](C1(C)SCCS1)C2C(C)=O` (stereo not given in full), the GI50 was 18.2 µM (inactive) in the test with HL-60; 27.9 µM (inactive) in the test with NCI-H460; 31.2 µM (inactive) with M14; 20.8 µM (inactive) with UACC-62; 23.9 µM (inactive) with SF-295; 35.2 µM (inactive) with ACHN. Further, the GI50 is > 10 µM (inactive) in the test on COLO 205; 26.7 µM (inactive) with PC-3; 24.8 µM (inactive) in the test with SK-MEL-28; 32.6 µM (inactive) in the test on CAKI-1; 22.6 µM (inactive) in the test on NCI-H23; 28.9 µM (inactive) with DU-145. The GI50 with MCF7 was 35.4 µM (inactive); in the test with SF-539, 23.1 µM (inactive); in the test with T47D, 24.2 µM (inactive); in the test on HCT-116 it was 23 µM (inactive); in the test on UO-31 it was 24.2 µM (inactive); with Hs-578T it was 17.2 µM (inactive). Moreover, the GI50 in the test with HOP-62 was 39.8 µM (inactive).
As to `COc1ccc2nc3cc([N+](=O)[O-])ccc3c(NNc3ccccc3)c2c1`, the GI50 in the test with HL-60 is 18.7 µM (inactive); with NCI-H460, 11.7 µM (inactive); with M14, 27.5 µM (inactive); in the test on UACC-62, 2 µM (inactive); with SNB-75, 49.1 µM (inactive); in the test on SF-295, 35.5 µM (inactive). For the same compound, the GI50 with ACHN was 30 µM (inactive); with COLO 205, 10.8 µM (inactive); with PC-3, 35.4 µM (inactive); with SK-MEL-28, 77.6 µM (inactive); with NCI-H23, 34.7 µM (inactive); in the test on DU-145 it was 42.1 µM (inactive). For the same compound, the GI50 is 10.8 µM (inactive) in the test with MCF7; 26.8 µM (inactive) with SF-539; 26.9 µM (inactive) with T47D; 11.4 µM (inactive) in the test with HCT-116; 31.4 µM (inactive) with UO-31; 26.5 µM (inactive) in the test with Hs-578T. Further, in the test on HOP-62, the GI50 is 27.7 µM (inactive).
For `C=C(C)C12CC(COC(=O)c3ccccc3)C34OC5(OC1C3C1OC1(CO)C(O)C1(O)C(OC(=O)c3ccccc3)C(C)C(C(C)CCCCCCC5O)C14)O2` (stereo not given), the GI50 was 33.6 µM (inactive) in the test on NCI-H460; 27.2 µM (inactive) in the test on M14; > 100 µM (inactive) in the test on UACC-62; > 82.8 µM (inactive) in the test with SNB-75; 31.2 µM (inactive) in the test on SF-295; 24.3 µM (inactive) with ACHN. For the same compound, the GI50 was < 0.01 µM (active) with COLO 205; 38.8 µM (inactive) in the test on PC-3; > 49.5 µM (inactive) in the test with SK-MEL-28; 56.5 µM (inactive) in the test on CAKI-1; 56.2 µM (inactive) with NCI-H23; 53.8 µM (inactive) in the test with DU-145. The GI50 in the test with MCF7 is 72.6 µM (inactive); in the test on SF-539, > 70.3 µM (inactive); in the test with T47D, > 87.9 µM (inactive); with HCT-116 it was 52 µM (inactive); in the test with UO-31 it was 70.1 µM (inactive); in the test on Hs-578T, 26.5 µM (inactive).
Turning to `NS(=O)(=O)c1cccc(NC(=S)NC(=O)Nc2ccc(Cl)c(Cl)c2)c1`, the GI50 was 16.7 µM (inactive) with NCI-H460; 14.2 µM (inactive) in the test with M14; 13.3 µM (inactive) in the test on UACC-62; 18.3 µM (inactive) in the test on SNB-75; 22.6 µM (inactive) with SF-295; 19.5 µM (inactive) in the test on ACHN. Further, the GI50 was 20 µM (inactive) with COLO 205; 22.4 µM (inactive) in the test with PC-3; 20.4 µM (inactive) in the test with SK-MEL-28; 15.8 µM (inactive) with NCI-H23; 30.1 µM (inactive) with DU-145; 18.3 µM (inactive) in the test with MCF7. The GI50 in the test on SF-539 was 20 µM (inactive); in the test on T47D, 18.1 µM (inactive); in the test with HCT-116 it was 17.1 µM (inactive); in the test on UO-31 it was 16.6 µM (inactive); in the test with Hs-578T, 17 µM (inactive); in the test with HOP-62, 15.5 µM (inactive).
Take `Cc1ccc(C2(c3ccc(F)cc3)OC(=O)c3ccccc32)c(O)c1` (stereo not given): the GI50 with HL-60 is 14 µM (inactive); in the test with NCI-H460, 17 µM (inactive); in the test with M14, 15 µM (inactive); in the test with UACC-62, 10.5 µM (inactive); in the test with SNB-75, 12.3 µM (inactive); in the test with SF-295 it was 11.5 µM (inactive). Further, the GI50 in the test on ACHN was 14.8 µM (inactive); in the test on COLO 205, 21.1 µM (inactive); in the test on CAKI-1, 11.6 µM (inactive); with NCI-H23 it was 19.9 µM (inactive); in the test with DU-145, 15.4 µM (inactive); with MCF7, 17 µM (inactive). For the same compound, the GI50 is 18.9 µM (inactive) with SF-539; 13.5 µM (inactive) in the test with T47D; 12.9 µM (inactive) in the test on HCT-116; 5.5 µM (inactive) in the test on UO-31; 20.1 µM (inactive) with Hs-578T; 14.6 µM (inactive) in the test on HOP-62.
In the case of `NC(Cc1nnn[nH]1)C(=O)O` (stereo not given), the GI50 in the test on NCI-H460, with M14, in the test on UACC-62, in the test on SNB-75, in the test on SF-295 and with ACHN was > 100 µM (inactive) throughout. Moreover, the GI50 in the test with COLO 205, in the test on PC-3, in the test with SK-MEL-28, in the test on CAKI-1, in the test with NCI-H23 and in the test on DU-145 was > 100 µM (inactive) each time. For the same compound, the GI50 in the test on MCF7, with SF-539, with T47D, in the test on HCT-116, in the test on Hs-578T and with HOP-62 was > 100 µM (inactive) in each case.
For the compound `CC1=C2O[C@]3(O)C=C2C(=C(O)C1=O)[C@@H]1O[C@H](CC[C@H](C)/C=C(\C)C[C@@H](C)C[C@@H]3C)[C@H](C)[C@H](O)[C@H]1C` [KENDOMYCIN], the GI50 is 0.145 µM (active) in the test with HL-60; 0.728 µM (active) in the test with NCI-H460; 0.161 µM (active) with M14; 0.233 µM (active) in the test on UACC-62; 0.394 µM (active) with SNB-75; 1.22 µM (inactive) with SF-295. Besides, the GI50 was 0.132 µM (active) in the test on ACHN; 0.125 µM (active) with COLO 205; 0.269 µM (active) with PC-3; 0.229 µM (active) with SK-MEL-28; 0.541 µM (active) with CAKI-1; 0.316 µM (active) in the test with NCI-H23. Also, the GI50 is 0.265 µM (active) with DU-145; 0.179 µM (active) in the test on MCF7; 0.173 µM (active) with SF-539; 0.176 µM (active) with HCT-116; 0.193 µM (active) with UO-31; 0.289 µM (active) in the test on Hs-578T. Further, the GI50 with HOP-62 was 0.356 µM (active).
